According to ChEMBL document CHEMBL1201862, “PubChem BioAssay data set” (2004):
Calls of active or inactive are those of the source.

What was measured:
INS1 = experiment: beta cell apoptosis inhibitors, cytokine rescue, dose response, luminescence, retest (AID 449756); format: functional, cell-based; settings: Rattus norvegicus;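 also: cell death triggered by IL-1 beta plus TNF-alpha plus IFN-gamma mixture; protective hits raise ATP signal compared with cytokine alone wells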
[1] = human group III sPLA2 inhibitors, dose response, biochemical, QFRET, IC50 (AID 743457);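 also: green fluorescence rise as the enzyme cleaves BODIPY PC-A2 in liposomes; potency for inhibition of the enzyme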
[2] = Luminescence Cell-Based Dose Retest to Confirm Inhibitors of Cancer Stem Cells. [Related pubchem assays (depositor defined):AID2717, AID2721]; format: functional; settings: Homo sapiens
[3] = target: Heat shock protein HSP 90-alpha (Homo sapiens, UniProt P07900); format: functional, organism-based
[4] = Shn3 3'UTR reporter inhibitors, dose response, cell-based, Clone20 osteoblasts, firefly luciferase, cherry-picked (AID 624132); format: functional;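 also: firefly luciferase luminescence from reporter carrying the Shn3 3'UTR in osteoblasts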
[5] = reduction of Shn3 3'UTR firefly luciferase signal, dose response, Schnurri-3 inhibitor project, cell-based, Clone20 osteoblasts, cherry-pick, set 2 (AID 720490); format: functional;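 also: actives lower the luminescence signal as inhibitors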
[6] = control 3'UTR Renilla luciferase suppression, dose response, counter-screen for Shn3 inhibitor project, cell-based, Clone20-Shn3RL, cherry-picked (AID 624133); format: functional
[7] = HepG2 cell cytotoxicity, dose response, cytotoxicity control for Shn3 inhibitor project, CellTiter-Glo, cherry-picked (AID 624134); format: functional, cell-based
fMet-Leu-Phe receptor = fMet-Leu-Phe receptor (Homo sapiens, UniProt P21462); experiment: FPR ligands, dose response (AID 519); format: functional
[8] = Luminescence Cell-Based Dose Confirmation HTS to Identify Inhibitors of Platelet Dense Granule Release. [Related pubchem assays: 1663 (Primary HTS), 1678 (Summary of Project)]; format: functional
[9] = target: T1, Luciferin 4-monooxygenase (Photinus pyralis, UniProt P08659); experiment: firefly luciferase enzyme inhibitors, dose response, biochemical, luminescence (AID 1891)
Kallikrein-7 = Kallikrein-7 (Homo sapiens, UniProt P49862); experiment: Fluorescence Intensity-based biochemical primary high throughput dose response assay to identify activators of kallikrein-7 (K7) zymogen.
[10] = target: NAD-dependent protein deacylase sirtuin-5, mitochondrial (Homo sapiens, UniProt Q9NXA8); experiment: SIRT5 desuccinylase inhibitors, dose response, biochemical, fluorescence imaging, cherry-pick, set 5 (AID 720591);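 also: desuccinylation of succinyl peptide AMC substrate read as fluorescence after trypsin release; potency of inhibitors that lower fluorescence and may act on trypsin instead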
Protein Wnt-3a = Protein Wnt-3a (Mus musculus, UniProt P27467); experiment: SAR analysis of small molecule antagonists of Gli-SUFU in a Wnt3a luminescent reporter assay.; format: functional
cells [11] = experiment: cells
[12] = target: Oxysterols receptor LXR-beta (Homo sapiens, UniProt P55055); format: functional, cell-based;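 also: Cell-based luminescence dose-response assay of agonist activity at LXR, run as a confirmatory counterscreen to a daf-12 agonist screen; HEK293 cells with Gal4-LXR fusion and GAL4-driven luciferase reporter; agonist potency from rising luciferase signal of a Gal4-LXR reporter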
HEK293 = experiment: inhibitors of LMP1-driven NF-kB reporter, dose response, cell-based, HEK293, luciferase, cherry-pick (AID 588343); format: functional; settings: Homo sapiens
HT-1080 = experiment: cytotoxicity in HT1080 fibrosarcoma cells, cell-based, fluorescence readout (AID 620); format: functional; settings: Homo sapiens
[13] = target: T1, Luciferin 4-monooxygenase; experiment: Counter Screen for Luciferase-based Assay Positives. [Related pubchem assays: 620, 618, 411 ]
Streptococcus = experiment: Group A Streptococcus viability loss, dose response, counter-screen for streptokinase expression inhibitor project, luminescence, BacTiterGlo (AID 1915); format: functional, organism-based;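 also: potency for reduction of bacterial viability or growth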
[14] = test system: Streptococcus sp. 'group A'; experiment: growth inhibition of control SK(-) GAS strain, dose response, counter-screen for streptokinase expression inhibitor project, luminescence, kanamycin, BacTiterGlo, confirmation (AID 1900); format: functional, organism-based
[15] = HEp-2 cell cytotoxicity, dose response, cytotoxicity control for RSV inhibitor project, HTS (AID 2410); format: functional; settings: human respiratory syncytial virus
Streptokinase A = target: T2, Streptokinase A (Streptococcus pyogenes serotype M1, UniProt P10520); experiment: S. pyogenes streptokinase expression inhibitors, potency, dose response, plasminogen activation absorbance, OD405 (AID 1914); format: functional, Streptococcus pyogenes M1 GAS;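 also: secreted streptokinase activity via plasminogen activation per viability signal from cell pellet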
T2 sequence (P10520 whole entry): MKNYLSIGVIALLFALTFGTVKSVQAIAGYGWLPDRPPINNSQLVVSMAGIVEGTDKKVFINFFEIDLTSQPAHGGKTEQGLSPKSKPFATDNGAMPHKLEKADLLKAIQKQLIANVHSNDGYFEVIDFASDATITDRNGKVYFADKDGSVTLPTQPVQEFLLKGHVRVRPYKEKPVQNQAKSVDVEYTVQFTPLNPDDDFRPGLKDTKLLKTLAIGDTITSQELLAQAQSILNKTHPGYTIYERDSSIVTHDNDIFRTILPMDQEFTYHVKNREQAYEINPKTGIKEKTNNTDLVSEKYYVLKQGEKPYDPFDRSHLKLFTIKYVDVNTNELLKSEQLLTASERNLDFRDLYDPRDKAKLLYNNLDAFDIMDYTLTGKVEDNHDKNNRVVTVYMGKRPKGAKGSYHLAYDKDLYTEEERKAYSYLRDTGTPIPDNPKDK

[16] = target: T3, Heat shock factor protein 1 (Mus musculus, UniProt P38532); experiment: inhibition of MG132-induced HSE-luciferase signal, confirmation, cell-based, NIH3T3, luminescence, dose retest (AID 2382); format: functional;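 also: NIH3T3 fibroblasts with HSF1-driven luciferase reporter stressed by proteasome inhibitor MG132; luminescence from HSF1-driven luciferase expression after 8 hours of MG132 stress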
T3 sequence (P38532 whole entry): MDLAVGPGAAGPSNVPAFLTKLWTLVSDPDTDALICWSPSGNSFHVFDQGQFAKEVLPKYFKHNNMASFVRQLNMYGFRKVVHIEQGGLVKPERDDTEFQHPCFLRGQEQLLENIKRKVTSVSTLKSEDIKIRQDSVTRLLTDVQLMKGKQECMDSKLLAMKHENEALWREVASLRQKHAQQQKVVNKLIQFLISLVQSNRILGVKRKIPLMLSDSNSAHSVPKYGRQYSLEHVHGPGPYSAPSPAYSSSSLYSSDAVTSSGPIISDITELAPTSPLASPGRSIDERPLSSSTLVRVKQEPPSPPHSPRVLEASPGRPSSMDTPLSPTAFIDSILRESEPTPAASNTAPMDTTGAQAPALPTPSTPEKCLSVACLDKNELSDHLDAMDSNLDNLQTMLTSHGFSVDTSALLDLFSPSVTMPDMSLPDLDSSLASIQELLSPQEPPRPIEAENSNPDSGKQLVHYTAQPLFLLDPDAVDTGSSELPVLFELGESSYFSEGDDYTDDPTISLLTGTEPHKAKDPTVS

Major prion protein = Major prion protein (Homo sapiens, UniProt P04156); format: functional, cell-based
cells [17] = experiment: cells; remark: listed apart in the source

O=C(/C=C/c1ccccc1)NC(=S)NNC(=O)c1cnccn1
AC50 (INS1): 1.39 µM (active) | IC50 [1]: 66.8 µM (inactive) | AC50 [2]: 8.78 µM (active) | AC50 [3]: 2.87 µM (active)

O=C(Nc1ccc(Cl)cc1)c1cc(S(=O)(=O)N2CCOCC2)cs1
AC50 [4]: 4.23 µM (active) | AC50 [5]: 4.83 µM (active) | AC50 [6]: 14.7 µM (active) | AC50 [7]: 46.9 µM (active)

COc1ccccc1NC(=O)CSc1nnc(Cn2nnc(-c3ccccc3)n2)n1-c1ccccc1
Ki (fMet-Leu-Phe receptor): > 66.7 µM (inactive)

CN1CCSc2ccc(C(=O)NCc3ccccc3F)cc21
EC50 [8]: > 112 µM (not active) | EC50 [9]: > 112 µM (not active) | EC50 (Kallikrein-7): > 23.2 µM (inactive)

COC(=O)C1=CN(CC2CCCO2)C=C(C(=O)OC)C1c1ccsc1 (configuration not stated)
EC50 (Kallikrein-7): > 69.5 µM (inactive)

Cc1ccc(SCc2cn3ccccc3n2)cc1
AC50 [10]: > 30 µM (inactive)

O=C(Nc1cc(N2CCCCC2)ncn1)c1ccccc1
IC50 (Protein Wnt-3a): > 21.8 µM (inactive)

c1ccc(-c2nnc(-c3ccccn3)s2)nc1
EC50 (cells [11]): > 67.5 µM (inactive) | EC50 [12]: > 67.5 µM (inactive) | AC50 (HEK293): 4.63 µM (active)

Cc1ccc2nc(-c3cc(N)cc(N)c3)oc2c1
IC50 [1]: > 122 µM (inactive) | EC50 (HT-1080): > 50 µM (not active) | EC50 [13]: 1.01 µM (active)

OC(COc1ccc2ccccc2c1Br)Cn1cnc(-c2ccccc2)c1 (configuration not stated)
EC50 (Streptococcus): 21.7 µM (active) | EC50 [14]: 6.29 µM (active) | CC50 [15]: 9.42 µM (active) | EC50 (Streptokinase A): 9.22 µM (active) | AC50 [2]: 5.02 µM (active) | EC50 [16]: > 195 µM (not active) | IC50 (Major prion protein): 4.17 µM (active) | IC50 (cells [17]): > 138 µM (inactive)

O=C(Nc1nc(-c2ccccc2)cs1)C1CCCCN1S(=O)(=O)c1ccccc1 (configuration not stated)
AC50 [4]: 5.14 µM (active) | AC50 [5]: 5.89 µM (active) | AC50 [7]: 58 µM (active)
